Key:
[1] = Cytotoxicity against MDCK cells assessed as reduction in cell viability measured after 72 hrs by MTS assay; type: cell-based, Canis lupus familiaris; conditions: dog
[2] = Cytotoxicity against MDCK cells assessed as change in cell morphology measured after 72 hrs by microscopic analysis; type: cell-based, Canis lupus familiaris; conditions: dog
[3] = system: Influenza A virus; test: Antiviral activity against Influenza A virus (A/PR 8/34 (H1N1)) infected in MDCK cells assessed as reduction in virus-induced cytopathic effect measured after 72 hrs by microscopic analysis; type: functional, organism-based; conditions: A/Puerto Rico/8/1934(H1N1)
[4] = system: Influenza A virus; test: Antiviral activity against Influenza A virus (A/PR 8/34 (H1N1)) infected in MDCK cells assessed as reduction in virus-induced cytopathic effect measured after 72 hrs by MTS assay; type: functional, organism-based; conditions: A/Puerto Rico/8/1934(H1N1)
[5] = Selectivity index, ratio of CC50 for MDCK cells to EC50 for antiviral activity against Influenza A virus (A/Puerto Rico/8/1934(H1N1)) infected in MDCK cells; type: toxicity, cell-based; conditions: dog, read-out: Ratio CC50/EC50

Row | Structure (SMILES) | CC50 at 72 h [1] | MCC at 72 h [2] | EC50 [3] | EC50 [4] | selectivity ratio [5]
1 | COC(=O)C[C@H](NC(=O)OC(C)(C)C)C(=O)N(C)C1(C(=O)NCc2ccccc2)CCN(Cc2ccccc2)CC1 | 25 µM | 20 µM | 14 µM | > 100 µM | –
2 | COC(=O)C[C@H](NC(=O)OC(C)(C)C)C(=O)N(Cc1ccc(C)cc1)C1(C(=O)NCc2ccccc2)CCN(Cc2ccccc2)CC1 | > 100 µM | > 100 µM | 6.9 µM | > 100 µM | –
3 | COC(=O)CC[C@H](NC(=O)OC(C)(C)C)C(=O)N(Cc1ccc(F)cc1)C1(C(=O)NCc2ccccc2)CCN(Cc2ccccc2)CC1 | > 100 µM | > 100 µM | 9.8 µM | 10 µM | ≤ 10
4 | COC(=O)C[C@H](NC(=O)OC(C)(C)C)C(=O)N(Cc1ccc(F)cc1)C1(C(=O)NCc2ccccc2)CCN(c2ccccc2)CC1 | 8.2 µM | 20 µM | > 100 µM | > 100 µM | –
5 | COC(=O)C[C@H](NC(=O)OC(C)(C)C)C(=O)N(Cc1ccc(F)c(F)c1)C1(C(=O)NCc2ccccc2)CCN(Cc2ccccc2)CC1 | 52 µM | 20 µM | > 100 µM | > 100 µM | –
6 | COC(=O)C[C@H](NC(=O)OC(C)(C)C)C(=O)N(Cc1ccc(F)cc1)C1(C(=O)NCS(=O)(=O)c2ccc(C)cc2)CCN(Cc2ccccc2)CC1 | 6.4 µM | 4 µM | > 100 µM | > 100 µM | –
7 | COC(=O)C[C@H](NC(=O)OC(C)(C)C)C(=O)N(Cc1ccc([N+](=O)[O-])cc1)C1(C(=O)NCc2ccccc2)CCN(Cc2ccccc2)CC1 | > 100 µM | 20 µM | 10 µM | > 100 µM | –
8 | COC(=O)C[C@H](NC(=O)OC(C)(C)C)C(=O)N(CCNc1ccccc1)C1(C(=O)NCc2ccccc2)CCN(Cc2ccccc2)CC1 | 68 µM | 14 µM | > 100 µM | > 100 µM | –
9 | COC(=O)C[C@H](NC(=O)OC(C)(C)C)C(=O)N(Cc1ccc(F)cc1)C1(C(=O)NCc2ccccc2)CCN(Cc2cccc(F)c2)CC1 | 73 µM | 84 µM | 1.6 µM | 1.6 µM | –
10 | COC(=O)C[C@H](N)C(=O)N(Cc1ccc(F)cc1)C1(C(=O)NCc2ccccc2)CCN(Cc2ccccc2)CC1 | 54 µM | 60 µM | < 0.8 µM | < 0.8 µM | –
11 | COC(=O)C[C@H](NC(=O)OC(C)(C)C)C(=O)N(Cc1ccc(F)cc1)C1(C(=O)NCc2ccccc2)CCN(C2CCCCC2)CC1 | 42 µM | 73 µM | > 100 µM | > 100 µM | –
12 | COC(=O)C[C@H](NC(=O)OC(C)(C)C)C(=O)N(Cc1ccc(F)cc1)C(C)(C)C(=O)NCc1ccccc1 | 10 µM | 20 µM | > 100 µM | > 100 µM | –
13 | COC(=O)CCC(=O)N(Cc1ccc(F)cc1)C1(C(=O)NCc2ccccc2)CCN(Cc2ccccc2)CC1 | 40 µM | 16 µM | 25 µM | 24 µM | –
14 | COC(=O)C[C@H](NC(=O)OC(C)(C)C)C(=O)N(Cc1ccc(F)cc1)C1(C(=O)NCc2ccccc2)CCN(CCc2ccccc2)CC1 | 41 µM | 100 µM | > 100 µM | > 100 µM | –
15 | CCC(C)N(C(=O)[C@H](CC(=O)OC)NC(=O)OC(C)(C)C)C1(C(=O)NCc2ccccc2)CCN(Cc2ccccc2)CC1 (stereo partly drawn) | 53 µM | 84 µM | > 100 µM | > 100 µM | –
16 | COC(=O)C[C@H](NC(=O)OCc1ccccc1)C(=O)N(Cc1ccc(F)cc1)C1(C(=O)NCc2ccccc2)CCN(Cc2ccccc2)CC1 | 1.9 µM | 2.6 µM | 2.7 µM | > 100 µM | –
17 | CC(C)(C)OC(=O)N[C@@H](Cc1ccccc1)C(=O)N(Cc1ccc(F)cc1)C1(C(=O)NCc2ccccc2)CCN(Cc2ccccc2)CC1 | 56 µM | 100 µM | > 100 µM | > 100 µM | –

Row | Structure (SMILES) | CC50 at 72 h [1] | MCC at 72 h [2] | EC50 [3] | EC50 [4] | selectivity ratio [5]
18 | COC(=O)C[C@H](NC(=O)OC(C)(C)C)C(=O)N(Cc1ccc(F)cc1)C1(C(=O)NCc2ccccc2)CCNCC1 | 48 µM | 100 µM | > 73 µM | > 89 µM | –
19 | COC(=O)C[C@H](NC(=O)OC(C)(C)C)C(=O)N(Cc1ccc(F)cc1)C1(C(=O)NC(C)(C)C)CCN(Cc2ccccc2)CC1 | 50 µM | 80 µM | > 100 µM | > 100 µM | –
20 | CC[C@H](C)[C@H](NC(=O)OCc1ccccc1)C(=O)N(C1CC1)C1(C(=O)NC(C)(C)C)CCN(Cc2ccccc2)CC1 | 59 µM | 100 µM | 4.3 µM | 3.9 µM | 13
21 | COC(=O)C[C@H](NC(=O)OC(C)(C)C)C(=O)N(C1CC1)C1(C(=O)NCc2ccccc2)CCN(Cc2ccccc2)CC1 | 56 µM | 84 µM | > 100 µM | > 100 µM | –
22 | COC(=O)C[C@H](NC(=O)OC(C)(C)C)C(=O)N(Cc1ccc(F)cc1)C1(C(=O)NC2CCCCC2)CCN(Cc2ccccc2)CC1 | 44 µM | 100 µM | > 100 µM | > 100 µM | –
23 | CC[C@H](C)[C@H](NC(=O)OC(C)(C)C)C(=O)N(Cc1ccccc1)C1(C(=O)NCc2ccccc2)CCN(Cc2ccccc2)CC1 | > 100 µM | > 100 µM | > 100 µM | > 100 µM | –
24 | CC[C@H](C)[C@H](NC(=O)OCc1ccccc1)C(=O)N(C1CC1)C1(C(=O)NCc2ccccc2)CCN(Cc2ccccc2)CC1 | > 100 µM | > 100 µM | 5.1 µM | 9 µM | 8
25 | COC(=O)C[C@H](NC(=O)OC(C)(C)C)C(=O)NC1(C(=O)NCc2ccccc2)CCN(Cc2ccccc2)CC1 | 85 µM | 100 µM | > 100 µM | > 100 µM | –
26 | COC(=O)C[C@H](NC(=O)OC(C)(C)C)C(=O)N(Cc1ccccc1F)C1(C(=O)NCc2ccccc2)CCN(Cc2ccccc2)CC1 | 72 µM | 20 µM | 9.3 µM | 8.7 µM | ≤ 10
27 | CC(C)(C)NC(=O)C1(N(C(=O)[C@H](Cc2ccccc2)NC(=O)OC(C)(C)C)C2CC2)CCN(Cc2ccccc2)CC1 | 58 µM | 84 µM | 5.8 µM | 5.3 µM | ≤ 10
28 | CC(C)(C)OC(=O)N[C@@H](CC(N)=O)C(=O)N(Cc1ccccc1)C1(C(=O)NCc2ccccc2)CCN(Cc2ccccc2)CC1 | > 100 µM | > 100 µM | 6.3 µM | 6.7 µM | ≤ 10
29 | C[C@H](NC(=O)OC(C)(C)C)C(=O)N(Cc1ccc(F)cc1)C1(C(=O)NCc2ccccc2)CCN(Cc2ccccc2)CC1 | > 100 µM | > 100 µM | 10 µM | 11 µM | –
30 | COC(=O)C[C@H](NC(=O)OC(C)(C)C)C(=O)N(Cc1ccc(F)cc1)C1(C(=O)NCc2ccccc2)CC[N+](C)(Cc2ccccc2)CC1 (stereo partly drawn) | 55 µM | 100 µM | > 100 µM | > 100 µM | –
31 | COC(=O)C[C@H](NC(=O)OC(C)(C)C)C(=O)N(Cc1ccc(C(F)(F)F)cc1)C1(C(=O)NCc2ccccc2)CCN(Cc2ccccc2)CC1 | 54 µM | 84 µM | > 100 µM | > 100 µM | –
32 | COC(=O)C[C@H](NC(=O)OC(C)(C)C)C(=O)N(Cc1ccc(F)cc1)C1(C(=O)NCc2ccccc2)CCN(Cc2cc(F)cc(F)c2)CC1 | 84 µM | 100 µM | > 100 µM | > 100 µM | –
33 | COC(=O)C[C@H](NC(=O)OC(C)(C)C)C(=O)N(Cc1ccc(F)cc1)C1(C(=O)NCc2ccccc2)CCN(C)CC1 | 9.5 µM | 17 µM | 36 µM | 36 µM | –
